Measured values as given in patent US8962651B2, “Compounds for the treatment of hepatitis C” (Bristol-Myers Squibb Company, priority 2013, dated 2015).

test system: genotype 1b (Con-1) HCV replicon; assay: HCV replicon luciferase assay; format: cell-based; conditions: 1b replicon, Huh-7 cells, Renilla luciferase, 3 days incubation
Procedure: The cell lines used to evaluate compounds consist of a human hepatocyte derived cell line (Huh-7) that constitutively expresses a genotype 1b (Con-1) HCV replicon or a genotype 1b (Con-1) HCV replicon with an asparagine replacing the cysteine at amino acid 316, or a genotype 2a (JFH-1) replicon, containing a Renilla luciferase reporter gene. These cells were maintained in Dulbecco's modified Eagle medium (DMEM) containing 10% FBS, 100 U/mL penicillin/streptomycin and 1.0 mg/mL G418.
After 3 days incubation at 37° C., cells were analyzed for Renilla Luciferase activity using the EnduRen substrate (Promega cat #E6485) according to the manufacturer's directions. Briefly, the EnduRen substrate was diluted in DMEM and then added to the plates to a final concentration of 7.5 μM. The plates were incubated for at least 1 h at 37° C. then read on a Viewlux Imager (PerkinElmer) using a luminescence program.

In order of falling EC50:
1. CCC(C)c1nc2oc(-c3ccc(F)cc3)c(C(=O)NC)c2cc1-c1cccc(C(=O)NC(C)(C)c2ncon2)c1 (centres unmarked) [Example 16, 5-(3-((2-(1,2,4-oxadiazol-3-yl)propan-2-yl)carbamoyl)phenyl)-6-(sec-butyl)-2-(4-fluorophenyl)-N-methylfuro[2,3-b]pyridine-3-carboxamide]  20 nM
2. CCC(C)c1nc2oc(-c3ccc(F)cc3)c(C(=O)NC)c2cc1-c1cccc(C(=O)NC(C)(C)c2ncon2)c1 (centres unmarked) [Example 15, 5-(3-((2-(1,2,4-oxadiazol-3-yl)propan-2-yl)carbamoyl)phenyl)-6-(sec-butyl)-2-(4-fluorophenyl)-N-methylfuro[2,3-b]pyridine-3-carboxamide]  4.98 nM

same assay, conditions: Hepatitis C virus, Huh-7, 72 h, 1b replicon, Huh-7 cells, Renilla luciferase, 3 days incubation

In order of rising EC50:
1. [2H]C([2H])([2H])Oc1ncc(-c2cc3c(C(=O)NC)c(-c4ccc(F)cc4)oc3nc2OCC(F)(F)F)cc1C(=O)NC(C)(C)c1ncon1 [Example 22, 5-[2-(4-fluorophenyl)-3-(methylcarbamoyl)-6-(2,2,2-trifluoroethoxy)furo[2,3-b]pyridin-5-yl]-2-(^2H3)methoxy-N-[2-(1,2,4-oxadiazol-3-yl)propan-2-yl]pyridine-3-carboxamide]  1.7 nM
2. [2H]C([2H])([2H])Oc1ncc(-c2cc3c(C(=O)NC)c(-c4ccc(F)cc4)oc3nc2OCC(F)(F)F)cc1C(=O)NC(c1ncon1)(C([2H])([2H])[2H])C([2H])([2H])[2H] [Example 21, 5-[2-(4-fluorophenyl)-3-(methylcarbamoyl)-6-(2,2,2-trifluoroethoxy)furo[2,3-b]pyridin-5-yl]-2-(^2H3)methoxy-N-[2-(1,2,4-oxadiazol-3-yl)(^2H6)propan-2-yl]pyridine-3-carboxamide]  2.23 nM
3. CNC(=O)c1c(-c2ccc(F)cc2)oc2nc(NCC(F)(F)F)c(-c3cccc(C(=O)NC(C)(C)c4ncon4)c3)cc12 [Example 12, 5-(3-((2-(1,2,4-oxadiazol-3-yl)propan-2-yl)carbamoyl)phenyl)-2-(4-fluorophenyl)-N-methyl-6-((2,2,2-trifluoroethyl)amino)furo[2,3-b]pyridine-3-carboxamide]  2.95 nM
4. CNC(=O)c1c(-c2ccc(F)cc2)oc2nc(CCC(F)(F)F)c(-c3cccc(C(=O)NC(C)(C)c4ncon4)c3)cc12 [Example 1, 5-(3-((2-(1,2,4-oxadiazol-3-yl)propan-2-yl)carbamoyl)phenyl)-2-(4-fluorophenyl)-N-methyl-6-(3,3,3-trifluoropropyl)furo[2,3-b]pyridine-3-carboxamide]  3.02 nM
5. CNC(=O)c1c(-c2ccc(F)cc2)oc2nc(NCC(F)(F)F)c(-c3cccc(C(=O)NC(C)(C)c4nc(C)no4)c3)cc12 [Example 7, 2-(4-fluorophenyl)-N-methyl-5-(3-((2-(3-methyl-1,2,4-oxadiazol-5-yl)propan-2-yl)carbamoyl)phenyl)-6-((2,2,2-trifluoroethyl)amino)furo[2,3-b]pyridine-3-carboxamide]  3.46 nM
6. CNC(=O)c1c(-c2ccc(F)cc2)oc2nc(CCC(F)(F)F)c(-c3cccc(C(=O)NC(C)(C)c4noc(C)n4)c3)cc12 [Example 10, 2-(4-fluorophenyl)-N-methyl-5-(3-((2-(5-methyl-1,2,4-oxadiazol-3-yl)propan-2-yl)carbamoyl)phenyl)-6-(3,3,3-trifluoropropyl)furo[2,3-b]pyridine-3-carboxamide]  3.61 nM
7. [2H]C([2H])([2H])Oc1ncc(-c2cc3c(C(=O)NC)c(-c4ccc(F)cc4)oc3nc2NCC(F)(F)F)cc1C(=O)NC(c1ncon1)(C([2H])([2H])[2H])C([2H])([2H])[2H] [Example 18, 5-[2-(4-fluorophenyl)-3-(methylcarbamoyl)-6-[(2,2,2-trifluoroethyl)amino]furo[2,3-b]pyridin-5-yl]-2-(^2H3)methoxy-N-[2-(1,2,4-oxadiazol-3-yl)(^2H6)propan-2-yl]pyridine-3-carboxamide]  4.32 nM
8. [2H]C([2H])([2H])Oc1ncc(-c2cc3c(C(=O)NC)c(-c4ccc(F)cc4)oc3nc2NCC(F)(F)F)cc1C(=O)NC(C)(C)c1ncon1 [Example 27, 5-[2-(4-fluorophenyl)-3-(methylcarbamoyl)-6-[(2,2,2-trifluoroethyl)amino]furo[2,3-b]pyridin-5-yl]-2-(^2H3)methoxy-N-[2-(1,2,4-oxadiazol-3-yl)propan-2-yl]pyridine-3-carboxamide]  4.32 nM
9. CNC(=O)c1c(-c2ccc(F)cc2)oc2nc(NCC(F)(F)F)c(-c3cccc(C(=O)NC4(c5noc(C)n5)CC4)c3)cc12 [Example 6, 2-(4-fluorophenyl)-N-methyl-5-(3-((1-(5-methyl-1,2,4-oxadiazol-3-yl)cyclopropyl)carbamoyl)phenyl)-6-((2,2,2-trifluoroethyl)amino)furo[2,3-b]pyridine-3-carboxamide]  4.76 nM
10. CNC(=O)c1c(-c2ccc(F)cc2)oc2nc(NCC(F)(F)F)c(-c3cccc(C(=O)NC4(c5ncon5)CCC4)c3)cc12 [Example 5, 5-(3-((1-(1,2,4-oxadiazol-3-yl)cyclobutyl)carbamoyl)phenyl)-2-(4-fluorophenyl)-N-methyl-6-((2,2,2-trifluoroethyl)amino)furo[2,3-b]pyridine-3-carboxamide]  4.96 nM
11. CNC(=O)c1c(-c2ccc(F)cc2)oc2nc(NCC(F)(F)F)c(-c3cccc(C(=O)NC(C)(C)c4noc(C)n4)c3)cc12 [Example 11, 2-(4-fluorophenyl)-N-methyl-5-(3-((2-(5-methyl-1,2,4-oxadiazol-3-yl)propan-2-yl)carbamoyl)phenyl)-6-((2,2,2-trifluoroethyl)amino)furo[2,3-b]pyridine-3-carboxamide]  4.96 nM
12. CNC(=O)c1c(-c2ccc(F)cc2)oc2nc(NCC(F)(F)F)c(-c3cccc(C(=O)NC4(c5nc(C)no5)CC4)c3)cc12 [Example 8, 2-(4-fluorophenyl)-N-methyl-5-(3-((1-(3-methyl-1,2,4-oxadiazol-5-yl)cyclopropyl)carbamoyl)phenyl)-6-((2,2,2-trifluoroethyl)amino)furo[2,3-b]pyridine-3-carboxamide]  5.6 nM
13. [2H]c1nc(C(NC(=O)c2cc(-c3cc4c(C(=O)NC)c(-c5ccc(F)cc5)oc4nc3NCC(F)(F)F)cnc2OC([2H])([2H])[2H])(C([2H])([2H])[2H])C([2H])([2H])[2H])no1 [Example 19, 5-[2-(4-fluorophenyl)-3-(methylcarbamoyl)-6-[(2,2,2-trifluoroethyl)amino]furo[2,3-b]pyridin-5-yl]-2-(^2H3)methoxy-N-{2-[(^2H)-1,2,4-oxadiazol-3-yl](^2H6)propan-2-yl}pyridine-3-carboxamide]  5.77 nM
14. [2H]C([2H])([2H])C(NC(=O)c1cc(-c2cc3c(C(=O)NC)c(-c4ccc(F)cc4)oc3nc2NCC(F)(F)F)cnc1OC)(c1ncon1)C([2H])([2H])[2H] [Example 26, 5-[2-(4-fluorophenyl)-3-(methylcarbamoyl)-6-[(2,2,2-trifluoroethyl)amino]furo[2,3-b]pyridin-5-yl]-2-methoxy-N-[2-(1,2,4-oxadiazol-3-yl)(^2H6)propan-2-yl]pyridine-3-carboxamide]  6.26 nM
15. CNC(=O)c1c(-c2ccc(F)cc2)oc2nc(NCC(F)(F)F)c(-c3ccc(OC)c(C(=O)NC(C)(C)c4ncon4)c3)cc12 [Example 14, 5-(3-((2-(1,2,4-oxadiazol-3-yl)propan-2-yl)carbamoyl)-4-methoxyphenyl)-2-(4-fluorophenyl)-N-methyl-6-((2,2,2-trifluoroethyl)amino)furo[2,3-b]pyridine-3-carboxamide]  6.67 nM
